Laboratory results reported in US10966964B2, “Method for preparing pharmaceutical composition comprising pyrrolo-fused six-membered heterocyclic compound” (Jiangsu Hengrui Medicine Co., Ltd., priority 2016, dated 2021).

Experiment: Water solubility and moisture stability of the active ingredient (statement)
Type: physicochemical
Details: compound of formula (I) or a pharmaceutically acceptable salt thereof
Description: Since the compound of formula (I) or a pharmaceutically acceptable salt thereof has poor water solubility, and is unstable in the presence of moisture, water cannot be used as a solvent for wet granulation. When the compound of formula (I) or a pharmaceutically acceptable salt thereof is formulated into a pharmaceutical composition by using a conventional preparation method, the resulting composition is difficult to dissolve rapidly and keep its quality stable. There is a need to find a suitable method to obtain a stable composition with a rapid dissolution.

Compound: CCN(CC)CCN1CCc2[nH]c(/C=C3\C(=O)Nc4ccc(F)cc43)c(C)c2C1=O.O=C(O)C[C@H](O)C(=O)O [compound of formula (I), 5-(2-diethylamino-ethyl)-2-(5-fluoro-2-oxo-1,2-dihydro-indol-3-ylidene-methyl)-3-methyl-1,5,6,7-tetrahydro-pyrrolo[3,2-c]pyridin-4-one]
- stability in the presence of moisture (in words): unstable
- water solubility (in words): poor
